# “And” between values parts separate entries of the source, which are not always exact repeats. Equal entries are not always repeated.
# Legend:
# [1] = test system: Dietary Obese Mice; experiment: Liver weight and lipid concentration of hepatic tissue (Folch extraction); format: in vivo; conditions: PD vs HFD group, 10 weeks
# Method: (§1) As a control drug, metformin (Met) or sibutramine (Sibu) which is an anti-obesity drug was added at a concentration of about 0.01% to HFD and used (Table 1). For a normal diet (chow) group, a commercially available rodent chow was fed. Pinocarveol, metformin, and sibutramine were all purchased from Sigma-Aldrich Company (U.S.).
# (§2) 5-week-old male C57BL/6J mice (Orient, Korea) were adjusted to a laboratory condition with solid feed for one week and randomly assigned to a high fat diet control group and experimental groups according to the randomized block method, followed by raising for ten weeks. Diet was supplied with water between 10 and 11 a.m. every day, intake amounts of diet was measured every day, and weight was measured every week. In order to prevent sudden weight changes due to feed intake, feed containers were removed, and weight was measured after 2 hours. Experimental animals were fasted for 12 hours or longer and anaesthetized by diethyl ether, and blood, liver, adipose tissues of internal organs (epididymal fat, fat around the kidney, mesenteric fat, and retroperitoneal fat) were collected, washed with 0.1M phosphate buffer solution (pH 7.4), and measured for weight. Blood collected from abdominal aorta was centrifuged at 1,000×g for 15 minutes to separate blood plasma.
# Lipid components of hepatic tissues were collected as follows according to the method by Folch, et al. (Folch J, Lees M, Sloane Stanley G H. A simple method for the isolation and purification of total lipids from animal tissues. J Bio Chem. 1957; 226: 497-509). 1 mL of distilled water was applied to a hepatic tissue (0.25 g) and homogenized by using a Polytron homogenizer (IKA-WERKE GmbH & Co., Ultra-Turrax, Staufen, Germany). 5 mL of a chloroform:methanol solution (2:1, v/v) was added to the homogeneous solution, mixed well and centrifuged at 1,000×g for 10 minutes to separate a lower phase. 2 mL of a chloroform:methanol solution (2:1, v/v) was added to an upper phase again, and after repeating the same procedure, lipid components of the liver were completely separated. 3 mL of a chloroform:methanol:0.05% CaCl2) (3:48:47, v/v/v) solution was added to the lower phase thus obtained, mixed for 1 minute, and centrifuged at 1,000×g for 10 minutes. After obtaining the final lower phase and completely drying with nitrogen gas, the dried lipids were dissolved in 1 mL of methanol to use for lipid component analysis.
# The concentrations of neutral fat, cholesterol, and free fatty acids of the lipid extracts of hepatic tissues were measured by using the same commercially available measurement kit (Bio Clinical System, Korea) as previously used for the analysis of plasma lipid concentration.
# [2] = test system: genes related to thermogenesis and adipogenesis; experiment: RT-PCR gene expression in adipose tissues of internal organs; format: in vivo, mice; conditions: PD vs HFD
# Method: (§3) 1 mL of TRIzol solution was added per 0.1 g of adipose tissues of internal organs and hepatic tissues, and tissues were crushed and centrifuged at 4° C. and 12,000×g for 10 minutes. The supernatant was placed in a new tube, and 200 μL of chloroform was added followed by stirring. After repeating this procedure twice, the supernatant was placed in a new tube, and isopropanol and the supernatant were added at a ratio of 1:1. After strongly shaking for 10 times, the mixture was placed at room temperature for 10 minutes, centrifuged at 4° C. and 12,000×g for 10 minutes to remove the supernatant, and 1 mL of 70% ethanol was added to the precipitate to be centrifuged at 4° C. and 7,500×g for 5 minutes. After removing ethanol, the tube containing RNA precipitate was dried at room temperature for 5 minutes, and RNA pellet was dissolved using nuclease free water. By a using UV/VIS spectrophotometer (Beckman coulter, DU730, U.S.), the concentrations of RNA samples extracted at wavelengths of 260 nm and 280 nm were measured, and by carrying out agarose gel electrophoresis, the integrity of RNA samples was determined.
# (§4) For RNA samples extracted from adipose tissues of internal organs and hepatic tissues, oligo dT primers and superscript reverse transcriptase (GIBCO BRL, U.S.) were used to carry out reverse transcription to synthesize cDNA. By using the cDNA obtained by reverse transcription as a […] and using a 5′ and 3′ flanking sequence of the cDNA of the gene to be amplified as a primer, PCR was carried out, and at this time, the sequences of the used primers are shown in Table 2. 1 μL of the amplified PCR product was subject to electrophoresis on a 1% agarose gel to check for DNA bands.
# [3] = test system: β-catenin; experiment: Western blot of β-catenin in adipose tissues of internal organs; format: in vivo, mice; conditions: PD vs HFD
# Method: (§5) A predetermined amount of visceral fat or hepatic tissues was homogenized with liquid nitrogen and a lysis buffer solution in a mortar and centrifuged at 13,000×g and 4° C. for 20 minutes, and the middle layer was obtained to quantify proteins according to the Bradford method. 50 μg of the protein was subject to electrophoresis on an SDS polyacrylamide gel, was subject to electroblotting on a PVDF hyper film, and was reacted with the corresponding antibody, β-catenin, phospho-AMPK (AMP-activated protein kinase), AMPK, GAPDH (Cell-Signaling Technology, U.S.), respectively. The signal of each protein was visualized by a chemiluminescent detection system (Amersham, U.K.), and the thickness of bands was quantified by using the Quantity One Analysis Software (Bio-Rad Laboratories, U.S.).
# [4] = test system: AMPK; experiment: Western blot of p-AMPK/AMPK in hepatic tissues; format: in vivo, mice; conditions: PD vs HFD
# Method: as §5
# [5] = test system: Dietary Obese Mice; experiment: Visceral fat weight in high fat diet-fed mice; format: in vivo; conditions: 10 weeks
# Method: as §1, §2
# After feeding the experimental diets for 10 weeks, each of epididymal fat, fat around the kidney, mesenteric fat, and retroperitoneal fat, which compose visceral fat, was extracted to measure the weight thereof.
# [6] = test system: Dietary Obese Mice; experiment: Oral glucose tolerance test; format: in vivo; conditions: PD vs HFD group, at 8 weeks, d-glucose 2 g/kg oral
# Method: An obesity inducing diet used in the present invention included a high fat control diet (HFD: 40% fat calorie, 17 g lard, and 3% corn oil/100 g diet), and a pinocarveol-supplemented high fat diet (PD) supplemented with pinocarveol (80,613, Sigma-Aldrich Company, CAS Number: 547-61-5, (1S,3R,5S)-6,6-dimethyl-2-methylenebicyclo[3,1,1]heptan-3-ol) has the same composition as HFD, but about 0.2% of pinocarveol was added. As a control drug, metformin (Met) or sibutramine (Sibu) which is an anti-obesity drug was added at a concentration of about 0.01% to HFD and used (Table 1). For a normal diet (chow) group, a commercially available rodent chow was fed. Pinocarveol, metformin, and sibutramine were all purchased from Sigma-Aldrich Company (U.S.).
# At 8 weeks of experimental raising, experimental animals were fasted for 16 hours and orally administered with d-glucose corresponding to 2 g/kg body weight, and blood was collected from the tail vein of mice at time points of 15 minutes, 30 minutes, 60 minutes, and 120 minutes. The glucose concentration of collected blood was measured by using a script-operation blood glucose sensor (ONETOUCH Ultra, Inverness Medical Ltd., U.K.).
# [7] = test system: IL-6, TNFα, MCP1, and leptin; experiment: Inflammatory cytokine concentration in blood (ELISA); format: in vivo, mice; conditions: PD vs HFD group, 10 weeks
# Method: as §1
# The concentrations of plasma IL-6, TNFα, MCP1, and leptin were measured by the ELISA method using the Milliplex map kit (Millipore Corporation, U.S.).
# [8] = test system: Dietary Obese Mice; experiment: Plasma lipid concentration (commercial measurement kit); format: in vivo; conditions: 10 weeks
# Method: as §1, §2
# In order to evaluate the concentrations of plasma cholesterol, neutral fat, and free fatty acids of experimental animals raised for ten weeks, a commercially available measurement kit (Bio Clinical System, Korea) was used to perform measurement by repeating 2 measurements, respectively.
# [9] = test system: Dietary Obese Mice; experiment: Fasting blood glucose and insulin concentration; format: in vivo; conditions: PD vs HFD group, 10 weeks
# Method: as §1
# Meanwhile, the glucose concentration of the blood plasma obtained during fasting which was collected from mice raised for 10 weeks was measured by using a biochemical automatic analyzer (Express Plus, Chiron Diagnostics Co., U.S.), and kit reagents for analysis were purchased from Bio-Clinical System (Korea).
# The insulin concentration of blood plasma obtained during fasting was measured by using a mouse insulin ELISA kit (Millipore Corporation, U.S.).
# [10] = cited from earlier work
# [11] = test system: Dietary Obese Mice; experiment: Liver function indexes (ALT, AST activity) in blood plasma; format: in vivo; conditions: PD vs HFD group, 10 weeks
# Method: as §1, §2
# [12] = test system: genes related to lipogenesis; experiment: RT-PCR gene expression in hepatic tissues; format: in vivo, mice; conditions: PD vs HFD
# Method: as §3, §4
# [13] = test system: Dietary Obese Mice; experiment: Body weight gain, diet intake and food efficiency ratio in high fat diet-fed mice; format: in vivo; conditions: 10 weeks
# Method: as §1, §2
compound,measurement,setting,value
"C=C1[C@H](O)C[C@@H]2C[C@H]1C2(C)C [pinocarveol, (1S,3R,5S)-6,6-dimethyl-2-methylenebicyclo[3,1,1]heptan-3-ol]",decrease in absolute liver weight,[1],30%
same,decrease in free fatty acid concentration of hepatic tissue,[1],65%
same,decrease in neutral fat concentration of hepatic tissue,[1],33%
same,decrease in total cholesterol concentration of hepatic tissue,[1],31%
same,C/EBPα gene expression,[2],significantly decreased
same,CD36 gene expression,[2],significantly decreased
same,FAS gene expression,[2],significantly decreased
same,PGC-1α gene expression,[2],significantly increased
same,PPARγ2 gene expression,[2],significantly decreased
same,UCP1 gene expression,[2],significantly increased
same,UCP3 gene expression,[2],significantly increased
same,leptin gene expression,[2],significantly decreased
same,C/EBPα gene expression,[2]; listed as PD,significantly decreased again
same,CD36 gene expression,[2]; listed as PD,significantly decreased again
same,FAS gene expression,[2]; listed as PD,significantly decreased again
same,PGC-1α gene expression,[2]; listed as PD,significantly increased again
same,PPARγ2 gene expression,[2]; listed as PD,significantly decreased again
same,UCP1 gene expression,[2]; listed as PD,significantly increased again
same,UCP3 gene expression,[2]; listed as PD,significantly increased again
same,leptin gene expression,[2]; listed as PD,significantly decreased again
same,protein expression amount of β-catenin,[3],significant increase
same,protein expression amount of β-catenin,[3]; listed as PD,significantly increased
same,activation (p-AMPK/AMPK ratio) of AMPK,[4],significant increase
same,activation (p-AMPK/AMPK ratio) of AMPK,[4]; listed as PD,significantly increased
same,decrease in total visceral fat weight,[5]; PD vs HFD group,32%
same,"weights of epididymal fat, fat around the kidney, mesenteric fat, and retroperitoneal fat",[5]; PD vs HFD group,significantly reduced
same,effect of reducing body weight and visceral fat amount compared with control drugs,[5]; vs sibutramine and metformin diets,as much excellent effect of reducing body weight and visceral fat amount as commercially available anti-obesity drugs (sibutramine) and diabetes treatment drugs (metformin)
same,blood glucose concentrations over time after sugar intake (OGTT),[6],decrease
same,reduction of area under the curve (AUC) of the glucose concentration (OGTT),[6],20%
same,decrease in plasma IL-6 concentration,[7],70%
same,decrease in plasma MCP1 concentration,[7],35%
same,decrease in plasma TNFα concentration,[7],28%
same,decrease in plasma leptin concentration,[7],40%
same,decrease in plasma free fatty acid concentration,[8]; PD vs HFD group,39%
same,decrease in plasma neutral fat concentration,[8]; PD vs HFD group,27%
same,decrease in plasma total cholesterol concentration,[8]; PD vs HFD group,16%
same,HDL-cholesterol concentration in blood,[8]; between the experimental groups,did not show any significant difference
same,decrease in fasting blood glucose concentration,[9],21%
same,decrease in fasting blood insulin concentration,[9],50%
same,solubility in oil and ethanol,[10]; oil and ethanol,dissolve in oil and ethanol
same,solubility in water,[10]; water,does not dissolve
same,decrease in alanine aminotransferase (ALT) activity in blood plasma,[11],44% and 52%
same,decrease in aspartate aminotransferase (AST) activity in blood plasma,[11],32% and 34%
same,ACC gene expression,[12],significantly decreased
same,FAS gene expression,[12],significantly decreased
same,LPL gene expression,[12],significantly decreased
same,LXRα gene expression,[12],significantly decreased
same,SREBP gene expression,[12],significantly decreased
same,ACC gene expression,[12]; listed as PD,significantly decreased again
same,FAS gene expression,[12]; listed as PD,significantly decreased again
same,LPL gene expression,[12]; listed as PD,significantly decreased again
same,LXRα gene expression,[12]; listed as PD,significantly decreased again
same,SREBP gene expression,[12]; listed as PD,significantly decreased again
same,decrease in cumulative body weight gain,[13]; PD (about 0.2% pinocarveol in HFD) vs HFD group,32%
same,decrease in food efficiency ratio (cumulative body weight gain / total diet intake),[13]; PD vs HFD group,32%
